The values below come from ChEMBL document CHEMBL4680324, “Discovery of natural product ellagic acid as a potent CD73 and CD39 dual inhibitor” (Bioorg Med Chem Lett, 2021).

The structures appear in SMILES notation. Bounds are passed on as bounds.

For assay [1], the target named is T1, 5'-nucleotidase (Mus musculus, UniProt Q61503).
T1 sequence (Q61503 whole entry): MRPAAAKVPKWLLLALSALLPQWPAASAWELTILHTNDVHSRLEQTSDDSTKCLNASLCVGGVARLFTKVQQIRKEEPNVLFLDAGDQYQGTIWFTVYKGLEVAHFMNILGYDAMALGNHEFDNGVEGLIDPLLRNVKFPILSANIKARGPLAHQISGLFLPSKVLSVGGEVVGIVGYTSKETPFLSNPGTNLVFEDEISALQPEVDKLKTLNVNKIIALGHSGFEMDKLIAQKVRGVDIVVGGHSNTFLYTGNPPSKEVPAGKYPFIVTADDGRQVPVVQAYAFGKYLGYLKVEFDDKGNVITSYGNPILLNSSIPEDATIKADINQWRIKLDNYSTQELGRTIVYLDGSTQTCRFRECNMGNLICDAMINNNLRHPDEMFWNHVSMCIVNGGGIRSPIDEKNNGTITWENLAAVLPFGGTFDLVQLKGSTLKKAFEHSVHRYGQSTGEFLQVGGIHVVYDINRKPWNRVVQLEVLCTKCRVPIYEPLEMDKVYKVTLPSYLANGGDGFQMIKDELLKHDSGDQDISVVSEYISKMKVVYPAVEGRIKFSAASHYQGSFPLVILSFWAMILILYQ
The assay can be described thus: Inhibition of mouse CD73.

The target of assay [2] is 5'-nucleotidase (Homo sapiens, UniProt P21589). The assay is described as follows: Inhibition of human CD73.
Assay [3] concerns the target T2, Ectonucleoside triphosphate diphosphohydrolase 1 (Mus musculus, UniProt P55772).
T2 sequence (P55772 whole entry): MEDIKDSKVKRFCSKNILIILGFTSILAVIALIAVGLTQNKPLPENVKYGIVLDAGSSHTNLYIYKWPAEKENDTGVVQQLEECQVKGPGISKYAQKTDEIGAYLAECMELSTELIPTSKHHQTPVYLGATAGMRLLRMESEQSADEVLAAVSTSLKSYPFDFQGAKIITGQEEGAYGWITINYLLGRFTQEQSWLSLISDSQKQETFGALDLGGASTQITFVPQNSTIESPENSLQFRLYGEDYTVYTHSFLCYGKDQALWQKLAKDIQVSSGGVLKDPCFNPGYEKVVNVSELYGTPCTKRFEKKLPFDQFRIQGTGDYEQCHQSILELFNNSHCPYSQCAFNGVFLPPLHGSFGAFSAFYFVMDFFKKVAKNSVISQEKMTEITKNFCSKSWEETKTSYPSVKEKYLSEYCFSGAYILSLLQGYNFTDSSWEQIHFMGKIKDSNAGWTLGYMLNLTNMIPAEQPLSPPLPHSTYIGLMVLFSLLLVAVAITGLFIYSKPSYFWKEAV
The assay is described as follows: Inhibition of mouse CD39.

The test system of the next assay is MIA PaCa-2. The assay can be described thus: Cytotoxicity against human MIA PaCa-2 cells expressing CD73 assessed as reduction in cell viability by CCK8 assay. It counts as functional, cell-based. Background: Tetrazolium dyes change colour on reduction, which living cells bring about.
In another assay the test system is MDA-MB-231. The assay can be described thus: Cytotoxicity against human MDA-MB-231 cells expressing CD73 assessed as reduction in cell viability by CCK8 assay. It counts as functional, cell-based.
The nature of assay [4]: Selectivity ratio of IC50 for inhibition of human CD73 to IC50 for inhibition of mouse CD73.
Assay [5] is described as follows: Selectivity ratio of IC50 for inhibition of human CD73 to IC50 for inhibition of mouse CD39.

Chain of 5'-nucleotidase (Homo sapiens, UniProt P21589) (P21589 whole entry): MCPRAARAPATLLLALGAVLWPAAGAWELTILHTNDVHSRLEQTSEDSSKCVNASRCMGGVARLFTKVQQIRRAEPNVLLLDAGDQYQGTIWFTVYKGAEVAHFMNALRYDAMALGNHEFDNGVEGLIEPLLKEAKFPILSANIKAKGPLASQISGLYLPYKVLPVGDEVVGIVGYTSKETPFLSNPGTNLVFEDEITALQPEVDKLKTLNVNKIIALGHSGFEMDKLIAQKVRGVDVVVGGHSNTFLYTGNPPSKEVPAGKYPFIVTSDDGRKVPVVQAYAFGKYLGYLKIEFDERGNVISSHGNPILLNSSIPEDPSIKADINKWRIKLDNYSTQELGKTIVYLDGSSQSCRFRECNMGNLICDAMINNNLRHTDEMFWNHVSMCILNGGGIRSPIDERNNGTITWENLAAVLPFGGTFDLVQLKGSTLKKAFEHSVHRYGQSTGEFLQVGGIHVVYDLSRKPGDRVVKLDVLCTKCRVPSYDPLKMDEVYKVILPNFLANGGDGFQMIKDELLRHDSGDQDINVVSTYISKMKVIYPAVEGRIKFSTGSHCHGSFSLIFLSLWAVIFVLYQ

The term IC50 denotes the concentration needed to halve the response being measured. For `Nc1ncnc2c1ncn2[C@@H]1O[C@H](COP(=O)(O)CP(=O)(O)O)[C@@H](O)[C@H]1O` [PHOSPHOMETHYLPHOSPHONIC ACID ADENOSYL ESTER], the IC50 against 5'-nucleotidase [1] is 4.63 µM; at 5'-nucleotidase [2], 3.97 µM; in assay [3] it was > 100 µM.
`O=C(OC[C@H]1O[C@@H](OC(=O)c2cc(O)c(O)c(O)c2)[C@H](OC(=O)c2cc(O)c(O)c(O)c2)[C@@H](OC(=O)c2cc(O)c(O)c(O)c2)[C@@H]1OC(=O)c1cc(O)c(O)c(O)c1)c1cc(O)c(O)c(O)c1` [PENTAGALLOYL GLUCOSE]: the IC50 against 5'-nucleotidase [1] is > 100 µM; at 5'-nucleotidase [2], 10.5 µM; in assay [3] it was 1.56 µM; in the assay with MIA PaCa-2, 72.6 µM; in the assay on MDA-MB-231 it was 9.12 µM.
`Nc1ccn([C@@H]2O[C@H](CO)[C@@H](O)C2(F)F)c(=O)n1` [GEMCITABINE]: the IC50 was 0.23 µM in the assay with MIA PaCa-2 and 1.15 µM in the assay on MDA-MB-231.
For `O=c1oc2c(O)c(O)cc3c(=O)oc4c(O)c(O)cc1c4c23` [ELLAGIC ACID], the figures for the Ratio IC50 in assay [4] and in assay [5] were 46.5 and 3.7, respectively. For the same compound, the IC50 at 5'-nucleotidase [1] was 0.04 µM; at 5'-nucleotidase [2], 1.85 µM; in assay [3], 0.5 µM; with MIA PaCa-2, 150 µM; with MDA-MB-231, 27.4 µM.
For `C=C(C)[C@@H]1CC[C@]2(CO)CC[C@]3(C)[C@H](CC[C@@H]4[C@@]5(C)CC[C@H](O)C(C)(C)[C@@H]5CC[C@]43C)[C@@H]12` [BETULIN], the IC50 against 5'-nucleotidase [1] was found to be 50.3 µM; against 5'-nucleotidase [2], 22.7 µM; in assay [3], 49.8 µM; in the assay on MIA PaCa-2, 95 µM; with MDA-MB-231, 24.6 µM.
